Test system: microbial growth (mold)
Experiment: 6-month storage test of flour tortillas, visual signs of microbial growth
Settings: flour tortillas with sodium propionate and potassium sorbate, acidulate 0.2832 weight %, stored at about 77° F., end of 6-month period
Method: The ingredients listed in Table 1 were combined at 100° F. The water and flour mixture was mixed for 2 minutes at a low speed with a dough hook. The dough was allowed to stand for 5 minutes and then divided into 50-gram balls that were heat pressed at 175° F. for 10 seconds. The raw tortillas were then baked on a griddle at 400° F. for 30 seconds on each side, and subsequently cooled.
Tortillas from each test batch were evaluated after baking for volume, eating quality, and microbial growth. Thereafter, tortilla specimens from of each batch were heat sealed in cellophane bags, bagged in ZIPLOCK® freezer pouches and stored at about 77° F. All test batches of tortilla samples were checked periodically for visual signs of microbial growth, volume reduction, and overall appearance over a 6-month period.

For O=C(O)/C=C/C(=O)O [raw fumaric acid, fumaric acid], the “visual signs of microbial growth / mold on tortillas” value was “visual signs of microbial growth, albeit to a lesser extent than the control tortillas”.

— patent US8202563B2, “Acidulate composition and methods for making and utilizing the same” (Clabber Girl Corporation, priority 2008, dated 2012)
